The test system of the assay is Vaccinia virus. The experiment in a line: Antiviral activity against Vaccinia virus assessed as protection against virus-induced cytopathogenic effect by cell based assay. Format: functional. Conditions: Orthopoxvirus vaccinia; read-out: ID50 (the source's name). (Damage to the host cells serves as the signal in cytopathic effect assays.)

In brackets after ≈: the same amount, converted by molar mass.

On to `Nc1nccc2c1ncn2C1C=C(CO)C(O)C1O` (stereo unspecified) [3-DEAZANEPLANOCIN A], for which the IC50 was determined as 0.02 µg/mL (≈ 0.0763 µM).
